Experimental data from BindingDB's records for doi:10.7270/Q24X565S (The Scripps Research Institute Molecular Screening Center, 2007).
pIC50: −log10 of the molar value. Structures can show the parent of a compound that is named as a salt.

These molecules were tested against cAMP-dependent protein kinase catalytic subunit alpha (Homo sapiens, UniProt P17612) (assay: inhibition of cAMP-dependent kinase PKA – biochemical, Kinase-Glo luminescence, Kemptide substrate, dose response (AID 548)). Conditions: not given.
For `C1=C(c2c[nH]c3ccccc23)CCNC1`, the pIC50 was under 4.22.
`O=C(CSc1nnc(-c2ccncc2)[nH]1)c1ccccc1` was tested, and the pIC50 was 4.61.
`Nc1[nH]nc2nc(N3CCCC3)nc(-c3ccccc3)c12` showed a pIC50 of under 4.22.
Work on `c1ccc(CCCNc2[nH]cnc3ncnc2-3)cc1` yielded a pIC50 of 4.40.
For `c1ccc2c(-c3ccncc3)c[nH]c2c1`, the pIC50 was 4.95.
For `CCN1CCN(Cc2nnnn2C(C)(C)C)CC1` [1-(1-tert-Butyl-1H-tetrazol-5-ylmethyl)-4-ethyl-piperazine], the pIC50 was under 4.22.
`CC(=O)n1cc(-c2ccncc2)c2ccccc21` [1-(3-pyridin-4-yl-1-indolyl)ethanone;hydrochloride] showed a pIC50 of 4.35.
`COc1cc2c(cc1NC(=O)COC(=O)Cn1cnc3ccccc31)oc1ccccc12` [2-(1-benzimidazolyl)acetic acid [2-[(2-methoxy-3-dibenzofuranyl)amino]-2-oxoethyl] ester] was tested, and the pIC50 was 4.43.
`COc1ccc2c(Cl)c(C(N)=O)sc2c1` [3-Chloro-6-methoxy-benzo[b]thiophene-2-carboxylic acid amide] gave a pIC50 of under 4.22.
With `CCC1CCCCN1c1nc(-c2ccncc2)nc2ccccc12` (centres undefined) [4-(2-ethyl-1-piperidinyl)-2-pyridin-4-ylquinazoline] the pIC50 was 4.87.
With `Nc1nonc1-n1nncc1-c1ccccc1` [4-(5-phenyl-1,2,3-triazol-1-yl)-1,2,5-oxadiazol-3-amine] the pIC50 was under 4.22.
`Cc1ccc(SCc2nc(-c3ccncc3)no2)cc1` [4-(5-{[(4-methylphenyl)thio]methyl}-1,2,4-oxadiazol-3-yl)pyridine] gave a pIC50 of under 4.22.
`O=C(CCCOc1ccccc1)Nc1ccncc1` [4-Phenoxy-N-pyridin-4-yl-butyramide] was tested, and the pIC50 was under 4.22.
Work on `Fc1ccccc1N1CCN(c2ncnc3n[nH]cc23)CC1` [4-[4-(2-fluorophenyl)piperazin-1-yl]-1H-pyrazolo[3,4-d]pyrimidine] yielded a pIC50 of 4.28.
`Clc1ccc(OCCN2CCN(c3ncnc4sccc34)CC2)cc1` [4-[4-[2-(4-chloranylphenoxy)ethyl]piperazin-1-yl]thieno[2,3-d]pyrimidine] was tested, and the pIC50 was 4.23.
With `Cc1ccc(S(=O)(=O)NCCSc2nnnn2-c2ccc(C(N)=O)cc2)cc1` [4-[5-[2-(tosylamino)ethylthio]tetrazol-1-yl]benzamide] the pIC50 was 4.98.
`Cn1c(SCc2ccc(Br)cc2)nnc1-c1ccncc1` [4-[5-[(4-bromobenzyl)thio]-4-methyl-1,2,4-triazol-3-yl]pyridine] gave a pIC50 of under 4.22.
With `Nc1c(S(=O)(=O)c2cccc(Cl)c2)c2c(n1N=CC1=CC(=O)C(=O)C=C1)Nc1ccccc1N2` [4-[[2-azanyl-3-(3-chlorophenyl)sulfonyl-4,9-dihydropyrrolo[3,2-b]quinoxalin-1-yl]iminomethyl]cyclohexa-3,5-diene-1,2-dione] the pIC50 was under 4.22.
Molecule `Cc1c2ccncc2c(C)c2c1[nH]c1ccccc12` [5,11-dimethyl-2H-pyrido[4,3-b]carbazole] has a pIC50 of 5.39.
`c1nc(N2CCCC2)c2[nH]cnc2n1` [6-(1-pyrrolidinyl)-7H-purine] showed a pIC50 of 4.45.
With `c1ccc(Cn2ncc3c2ncn2c(-c4ccncc4)nnc32)cc1` [7-Benzyl-3-pyridin-4-yl-7H-pyrazolo[4,3-e][1,2,4]triazolo[4,3-c]pyrimidine] the pIC50 was under 4.70.
In the case of `CCc1cc2c(O)ncnc2s1` [MLS000029626], the pIC50 was under 4.22.
`Cc1cc2c(ccc3[nH]onc32)n1` [MLS000038925] showed a pIC50 of 4.30.
Molecule `CN(C(=O)COc1ccccc1)c1nnc(-c2ccncc2)s1` [MLS000075421] has a pIC50 of under 4.22.
`c1ccc(Cn2ncc3c2ncn2nc(-c4ccncc4)nc32)cc1` [MLS000078634] was tested, and the pIC50 was under 4.70.
For `Cc1cc2ccccc2c(=O)n1CC(=O)Nc1ccc2c(c1)OCO2` [MLS000086255], the pIC50 was under 4.22.
In the case of `O=NCc1c[nH]c2ccccc12` [MLS000104363], the pIC50 was 4.46.
Work on `Cc1cccc(NC(=O)CSc2n[nH]c(-c3ccncc3)n2)c1` [N-(3-methylphenyl)-2-[(5-pyridin-4-yl-1H-1,2,4-triazol-3-yl)thio]acetamide] yielded a pIC50 of under 4.22.
Work on `c1nc(NC2CCCCC2)c2[nH]cnc2n1` [N-cyclohexyl-7H-purin-6-amine] yielded a pIC50 of 5.05.
`Fc1cc2nc(-c3ccncc3)[nH]c2cc1F` [SMR000040673] was tested, and the pIC50 was under 4.22.
For `CCOc1ccc2nc3ccc4[nH]onc4c3c2c1` [SMR000111865], the pIC50 was under 4.22.

Same assay, conditions: inactive by the depositor's call
`NC(=O)c1sc2nc(N3CCCCC3)c3c(c2c1N)CCCC3` [1-amino-5-(1-piperidinyl)-6,7,8,9-tetrahydrothieno[2,3-c]isoquinoline-2-carboxamide] was tested, and the pIC50 was 3.45.
Work on `Fc1ccccc1Cn1nnc2c(-n3ccnc3)ncnc21` [3-(2-Fluoro-benzyl)-7-imidazol-1-yl-3H-[1,2,3]triazolo[4,5-d]pyrimidine] yielded a pIC50 of 3.64.
Molecule `CC1(C)Cc2c(c(-c3ccco3)nc3n[nH]c(N)c23)CO1` [SMR000045457] has a pIC50 of 4.15.
